Measured values as given in patent US20240327364A1, “THERAPEUTIC TARGETING OF GPR68 TO INDUCE FERROPTOSIS” (University Of Maryland, Baltimore, priority 2023, published 2024).

How the values were obtained:
[1] = system: A549; assay: Crystal violet viability, 24 hours; assay type: cell-based
Method: A549 lung cancer cells were plated at different concentrations of cell per well in a 96-well plate. On the following day cells were treated with increasing doses of OGM2. Twenty-four hours later cells viability was assayed with crystal violet and normalized to untreated.

[2] = system: PANC02; assay: Scratch migration; assay type: cell-based; conditions: 10 μM OGM2, 24 hours
Method: In a second study. PANC02 pancreatic cells plated and grown to confluence. Using a P200 tip, cells were denuded and allowed to migrate for 24 hours in DMSO or 10 μM OGM2 and imaged.

[3] = target: T1, BMPR2 (Homo sapiens, UniProt Q13873); assay: KinomeScan; assay type: binding; conditions: read-out: % Control
T1 construct: purchased DiscoveRx (Fremont, CA)

[4] = target: T2, SRC (Homo sapiens, UniProt P12931); assay: KinomeScan; assay type: binding; conditions: read-out: % Control
T2 construct: purchased DiscoveRx (Fremont, CA)

[5] = target: T3, PIK3C2G (Homo sapiens, UniProt O75747); assay: KinomeScan; assay type: binding; conditions: read-out: % Control
T3 construct: purchased DiscoveRx (Fremont, CA)

[6] = target: T4, ROCK1 (Homo sapiens, UniProt Q13464); assay: KinomeScan; assay type: binding; conditions: read-out: % Control
T4 construct: purchased DiscoveRx (Fremont, CA)

[7] = target: T5, MC2 (Homo sapiens, UniProt Q01718); assay: GPCR Profiler; assay type: cell-based
T5 construct: host or cells: Chem-1 cells with promiscuous Gα15

[8] = target: T6, IKK-beta (Homo sapiens, UniProt O14920); assay: KinomeScan; assay type: binding; conditions: read-out: % Control
T6 construct: purchased DiscoveRx (Fremont, CA)

[9] = target: T7, MEK1 (Homo sapiens, UniProt Q02750); assay: KinomeScan; assay type: binding; conditions: read-out: % Control
T7 construct: purchased DiscoveRx (Fremont, CA)

[10] = system: Trypsin activated PARS; assay: GPCR Profiler; assay type: cell-based
[11] = target: CHEK2 (Homo sapiens, UniProt O96017); assay: KinomeScan; assay type: binding; conditions: read-out: % Control
[12] = target: T8, PRKCH (Homo sapiens, UniProt P24723); assay: KinomeScan; assay type: binding; conditions: read-out: % Control
T8 construct: purchased DiscoveRx (Fremont, CA)

[13] = target: T9, DYRK1A (Homo sapiens, UniProt Q13627); assay: KinomeScan; assay type: binding; conditions: read-out: % Control
T9 construct: purchased DiscoveRx (Fremont, CA), KinomeScan service

[14] = target: T10, S1P1 (Homo sapiens, UniProt P21453); assay: GPCR Profiler; assay type: cell-based
T10 construct: host or cells: Chem-1 cells with Gα15

[15] = target: T11, PK1 (Homo sapiens, UniProt Q8TCW9); assay: GPCR Profiler; assay type: cell-based
T11 construct: host or cells: Chem-1 cells with Gα15

[16] = target: T12, LOK (Homo sapiens, UniProt O94804); assay: KinomeScan; assay type: binding; conditions: read-out: % Control
T12 construct: purchased DiscoveRx

[17] = target: T13, MEK4 (Homo sapiens, UniProt P45985); assay: KinomeScan; assay type: binding; conditions: read-out: % Control
T13 construct: purchased DiscoveRx (Fremont, CA)

[18] = target: T14, MAP4K4 (Homo sapiens, UniProt O95819); assay: KinomeScan; assay type: binding; conditions: read-out: % Control
T14 construct: purchased DiscoveRx (Fremont, CA)

[19] = target: T15, CCR5 (Macaca mulatta, UniProt P61813); assay: GPCR Profiler; assay type: cell-based
T15 construct: host or cells: Chem-1 cells with Gα15

[20] = target: T16, GSK3B (Homo sapiens, UniProt P49841); assay: KinomeScan; assay type: binding; conditions: read-out: % Control
T16 construct: purchased DiscoveRx (Fremont, CA)

[21] = target: T17, EGFR(L861Q) (Homo sapiens, UniProt P00533, L861Q); assay: KinomeScan; assay type: binding; conditions: read-out: % Control
T17 construct: purchased DiscoveRx (Fremont, CA), KinomeScan service

[22] = target: T18, EGFR(G719S) (Homo sapiens, UniProt P00533, G719S); assay: KinomeScan; assay type: binding; conditions: read-out: % Control
T18 construct: purchased DiscoveRx (Fremont, CA), KinomeScan service

[23] = target: T19, ADRB3 (Homo sapiens, UniProt P13945); assay: GPCR Profiler; assay type: cell-based; conditions: 12.5 uM
T19 construct: host or cells: Chem-1 cells with promiscuous Gα15

[24] = target: T20, CRF2 (Homo sapiens, UniProt Q13324); assay: GPCR Profiler; assay type: cell-based
T20 construct: host or cells: Chem-1 cells with Gα15

[25] = target: T21, ASK1 (Homo sapiens, UniProt Q99683); assay: KinomeScan; assay type: binding; conditions: read-out: % Control
T21 construct: purchased DiscoveRx (Fremont, CA)

[26] = target: T22, H1 (Homo sapiens, UniProt P35367); assay: GPCR Profiler; assay type: cell-based
T22 construct: host or cells: Chem-1 cells with promiscuous Gα15

[27] = target: T23, AKT1 (Homo sapiens, UniProt P31749); assay: KinomeScan; assay type: binding; conditions: read-out: % Control
T23 construct: purchased DiscoveRx (Fremont, CA)

[28] = target: T24, MARK4 (Homo sapiens, UniProt Q96L34); assay: KinomeScan; assay type: binding; conditions: read-out: % Control
T24 construct: purchased DiscoveRx (Fremont, CA)

[29] = target: T25, PCTK2 (Homo sapiens, UniProt Q00537); assay: KinomeScan; assay type: binding; conditions: read-out: % Control
T25 construct: purchased DiscoveRx

T20 sequence (Q13324 whole entry): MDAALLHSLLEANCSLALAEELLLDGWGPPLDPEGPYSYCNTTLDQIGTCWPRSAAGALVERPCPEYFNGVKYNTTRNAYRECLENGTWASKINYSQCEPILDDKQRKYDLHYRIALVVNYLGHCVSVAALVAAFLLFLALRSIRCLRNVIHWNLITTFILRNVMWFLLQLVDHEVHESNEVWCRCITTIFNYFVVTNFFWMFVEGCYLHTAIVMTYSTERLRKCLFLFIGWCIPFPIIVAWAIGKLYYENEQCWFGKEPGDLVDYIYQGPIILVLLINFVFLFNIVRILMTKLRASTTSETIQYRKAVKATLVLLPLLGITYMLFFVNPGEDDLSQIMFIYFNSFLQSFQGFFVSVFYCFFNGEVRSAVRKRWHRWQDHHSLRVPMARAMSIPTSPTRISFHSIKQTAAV
T11 sequence (Q8TCW9 whole entry): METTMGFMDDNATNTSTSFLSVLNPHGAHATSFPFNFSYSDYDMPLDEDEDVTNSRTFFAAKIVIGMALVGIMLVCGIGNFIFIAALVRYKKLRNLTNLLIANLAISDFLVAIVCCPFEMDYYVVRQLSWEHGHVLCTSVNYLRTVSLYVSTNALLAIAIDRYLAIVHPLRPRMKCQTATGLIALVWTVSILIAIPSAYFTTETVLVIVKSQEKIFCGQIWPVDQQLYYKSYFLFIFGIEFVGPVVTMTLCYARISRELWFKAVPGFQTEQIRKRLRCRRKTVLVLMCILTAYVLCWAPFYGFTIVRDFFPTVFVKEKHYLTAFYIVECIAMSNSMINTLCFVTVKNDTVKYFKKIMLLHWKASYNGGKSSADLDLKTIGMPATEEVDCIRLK
T22 sequence (P35367 whole entry): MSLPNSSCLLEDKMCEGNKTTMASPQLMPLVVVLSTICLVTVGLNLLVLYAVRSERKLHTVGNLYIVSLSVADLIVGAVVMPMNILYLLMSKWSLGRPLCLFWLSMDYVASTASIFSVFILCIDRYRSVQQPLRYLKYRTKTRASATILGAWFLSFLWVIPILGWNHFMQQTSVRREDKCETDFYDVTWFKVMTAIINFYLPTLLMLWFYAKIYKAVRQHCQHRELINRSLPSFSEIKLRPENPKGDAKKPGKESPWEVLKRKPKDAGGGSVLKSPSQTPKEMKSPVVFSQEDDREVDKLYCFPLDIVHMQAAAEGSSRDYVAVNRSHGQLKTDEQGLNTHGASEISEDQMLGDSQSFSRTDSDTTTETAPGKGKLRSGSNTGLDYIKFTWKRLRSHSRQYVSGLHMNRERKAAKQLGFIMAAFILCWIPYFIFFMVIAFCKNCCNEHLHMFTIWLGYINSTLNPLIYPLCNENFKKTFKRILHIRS
T10 sequence (P21453 whole entry, species assumed): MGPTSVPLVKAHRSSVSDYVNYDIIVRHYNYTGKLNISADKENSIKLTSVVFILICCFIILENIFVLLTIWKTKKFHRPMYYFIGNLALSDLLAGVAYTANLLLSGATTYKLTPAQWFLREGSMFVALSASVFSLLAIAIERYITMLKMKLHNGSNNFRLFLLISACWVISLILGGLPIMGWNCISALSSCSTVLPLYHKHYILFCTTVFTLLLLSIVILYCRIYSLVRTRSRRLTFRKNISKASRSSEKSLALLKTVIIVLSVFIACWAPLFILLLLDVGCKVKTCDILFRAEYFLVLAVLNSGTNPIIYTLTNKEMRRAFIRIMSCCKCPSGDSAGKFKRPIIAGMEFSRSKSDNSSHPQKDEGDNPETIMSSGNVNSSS
T5 sequence (Q01718 whole entry): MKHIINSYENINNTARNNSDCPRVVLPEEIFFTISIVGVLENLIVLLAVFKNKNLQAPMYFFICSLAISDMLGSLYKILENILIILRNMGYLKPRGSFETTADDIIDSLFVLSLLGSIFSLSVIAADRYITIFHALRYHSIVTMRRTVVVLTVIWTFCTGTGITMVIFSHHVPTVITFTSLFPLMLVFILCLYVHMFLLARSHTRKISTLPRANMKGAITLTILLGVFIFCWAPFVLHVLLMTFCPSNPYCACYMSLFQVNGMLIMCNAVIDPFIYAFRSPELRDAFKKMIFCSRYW
T5 sequence (Q8TCY5 whole entry partner): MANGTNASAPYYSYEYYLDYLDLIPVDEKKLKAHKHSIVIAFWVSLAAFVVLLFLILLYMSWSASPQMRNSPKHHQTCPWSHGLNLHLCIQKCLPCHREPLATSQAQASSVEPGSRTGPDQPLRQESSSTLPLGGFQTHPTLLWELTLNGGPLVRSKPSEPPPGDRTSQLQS
T8 sequence (P24723 whole entry): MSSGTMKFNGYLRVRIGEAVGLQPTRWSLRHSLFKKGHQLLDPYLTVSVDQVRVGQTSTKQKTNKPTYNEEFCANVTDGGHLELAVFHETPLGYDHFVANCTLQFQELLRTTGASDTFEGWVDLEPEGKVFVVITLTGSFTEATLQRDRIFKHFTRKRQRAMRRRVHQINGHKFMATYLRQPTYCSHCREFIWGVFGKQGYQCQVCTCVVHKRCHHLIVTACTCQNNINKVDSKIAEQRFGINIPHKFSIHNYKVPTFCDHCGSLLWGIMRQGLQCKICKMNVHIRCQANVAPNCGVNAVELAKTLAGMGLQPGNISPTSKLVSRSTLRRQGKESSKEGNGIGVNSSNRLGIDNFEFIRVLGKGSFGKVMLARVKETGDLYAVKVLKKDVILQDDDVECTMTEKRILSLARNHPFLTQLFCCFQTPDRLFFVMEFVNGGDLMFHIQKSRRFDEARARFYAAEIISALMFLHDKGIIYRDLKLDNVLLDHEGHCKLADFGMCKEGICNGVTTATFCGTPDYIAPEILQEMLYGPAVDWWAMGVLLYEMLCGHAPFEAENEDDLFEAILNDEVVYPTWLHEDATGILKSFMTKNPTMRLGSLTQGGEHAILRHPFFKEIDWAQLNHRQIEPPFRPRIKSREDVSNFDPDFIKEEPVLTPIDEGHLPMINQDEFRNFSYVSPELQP
Sequence of CHEK2 (O96017 whole entry): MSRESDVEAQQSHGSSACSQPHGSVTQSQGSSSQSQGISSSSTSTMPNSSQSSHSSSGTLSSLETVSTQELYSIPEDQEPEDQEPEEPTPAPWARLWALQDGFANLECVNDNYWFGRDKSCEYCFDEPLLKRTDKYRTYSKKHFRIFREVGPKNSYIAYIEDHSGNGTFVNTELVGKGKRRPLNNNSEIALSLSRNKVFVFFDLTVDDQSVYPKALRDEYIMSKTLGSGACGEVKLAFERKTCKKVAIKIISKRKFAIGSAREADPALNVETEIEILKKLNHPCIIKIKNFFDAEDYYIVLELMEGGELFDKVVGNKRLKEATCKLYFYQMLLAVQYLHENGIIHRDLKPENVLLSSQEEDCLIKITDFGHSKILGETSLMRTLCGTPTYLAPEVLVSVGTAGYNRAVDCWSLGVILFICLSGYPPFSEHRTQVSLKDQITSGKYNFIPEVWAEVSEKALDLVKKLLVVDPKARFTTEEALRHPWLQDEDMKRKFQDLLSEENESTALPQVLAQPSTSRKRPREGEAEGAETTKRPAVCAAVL
T12 sequence (O94804 whole entry): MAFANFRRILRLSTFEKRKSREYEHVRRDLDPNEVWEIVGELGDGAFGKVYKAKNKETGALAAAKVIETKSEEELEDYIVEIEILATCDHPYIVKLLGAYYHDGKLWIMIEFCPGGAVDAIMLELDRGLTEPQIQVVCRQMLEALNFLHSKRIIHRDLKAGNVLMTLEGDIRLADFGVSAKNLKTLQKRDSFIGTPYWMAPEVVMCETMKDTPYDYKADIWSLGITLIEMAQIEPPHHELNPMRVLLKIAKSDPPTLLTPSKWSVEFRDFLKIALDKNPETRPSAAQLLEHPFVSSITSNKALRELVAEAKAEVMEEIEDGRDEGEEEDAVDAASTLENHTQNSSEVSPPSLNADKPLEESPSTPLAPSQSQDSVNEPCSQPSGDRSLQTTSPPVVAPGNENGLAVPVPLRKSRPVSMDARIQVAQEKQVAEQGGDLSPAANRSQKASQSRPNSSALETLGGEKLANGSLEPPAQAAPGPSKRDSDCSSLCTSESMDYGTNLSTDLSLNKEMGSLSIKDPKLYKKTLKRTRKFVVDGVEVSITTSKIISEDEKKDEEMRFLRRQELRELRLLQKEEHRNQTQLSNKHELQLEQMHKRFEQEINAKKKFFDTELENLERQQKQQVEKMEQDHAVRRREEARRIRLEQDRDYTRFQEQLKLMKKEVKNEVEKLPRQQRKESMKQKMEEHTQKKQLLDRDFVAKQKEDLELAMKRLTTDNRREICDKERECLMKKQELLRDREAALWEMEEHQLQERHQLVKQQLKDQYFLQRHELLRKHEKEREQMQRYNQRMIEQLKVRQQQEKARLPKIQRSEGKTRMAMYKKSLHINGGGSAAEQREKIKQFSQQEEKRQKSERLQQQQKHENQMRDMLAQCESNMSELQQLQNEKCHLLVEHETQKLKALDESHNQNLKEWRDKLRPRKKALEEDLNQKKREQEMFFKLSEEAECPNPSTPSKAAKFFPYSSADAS

## CCc1ccc2c(c1)C1(NN=C(c3ccccc3)S1)C(=O)N2 (stereo not drawn) [OGM2]
[1]
  toxicity: relatively High doses of OGM2 are necessary for toxicity in A549 cells
[2]
  migration: significantly reduced migration

## CCc1ccc2c(c1)C1(NN=C(c3cccc4ccccc34)S1)C(=O)N2 (stereo not drawn) [OGM1, 5-ethyl-5′-naphthalen-1-ylspiro[1H-indole-3,2′-3H-1,3,4-thiadiazole]-2-one]
[3]
  remaining binding at 10 µM: 92%
[4]
  remaining binding at 10 µM: 95%
[5]
  remaining binding at 10 µM: 50%
[6]
  remaining binding at 10 µM: 71%
[7]; 10 uM
  Antagonism: 3.9
[7]; 12.5 uM
  Agonism: 0.1
[8]
  remaining binding at 10 µM: 92%
[9]
  remaining binding at 10 µM: 84%
[10]; 10 uM
  Antagonism: 18.2
[10]; 12.5 uM
  Agonism: 0
[11]
  remaining binding at 10 µM: 82%
[12]
  remaining binding at 10 µM: 100%
[13]
  remaining binding at 10 µM: 39%
[14]; 10 uM
  Antagonism: 3.1
[14]; 12.5 uM
  Agonism: −0.4
[15]; 10 uM
  Antagonism: −8
[15]; 12.5 uM
  Agonism: 0.2
[16]
  remaining binding at 10 µM: 100%
[17]
  remaining binding at 10 µM: 100%
[18]
  remaining binding at 10 µM: 100%
[19]; 10 uM
  Antagonism: 15.8
[19]; 12.5 uM
  Agonism: 2.5
[20]
  remaining binding at 10 µM: 83%
[21]
  remaining binding at 10 µM: 100%
[22]
  remaining binding at 10 µM: 95%
[23]
  Agonism: −0.2
[24]; 10 uM
  Antagonism: −13.7
[24]; 12.5 uM
  Agonism: 0.6
[25]
  remaining binding at 10 µM: 100%
[26]; 10 uM
  Antagonism: −17.2
[26]; 12.5 uM
  Agonism: 2.1
[27]
  remaining binding at 10 µM: 78%
[28]
  remaining binding at 10 µM: 95%
[29]
  remaining binding at 10 µM: 100%
